Test results as given in ChEMBL document CHEMBL3808363, “2-(Thienothiazolylimino)-1,3-thiazolidin-4-ones inhibit cell division cycle 25 A phosphatase” (Bioorg Med Chem, 2016).
Active and inactive are the calls of the source. The calls are words filed in the database; no cut-off is given here.

Tests used:
[1] = target: T1, M-phase inducer phosphatase 1 (Homo sapiens) (UniProt P30304); test: (§1) Inhibition of human recombinant full length GST-tagged CDC25A transfected in Escherichia coli BL21-DE3 using 3-O-methylfluorescein phosphate as substrate at 10 uM incubated for 20 mins followed by substrate addition measured every 10 mins for 2 hrs by fluorimetric assay
T1 sequence (whole entry): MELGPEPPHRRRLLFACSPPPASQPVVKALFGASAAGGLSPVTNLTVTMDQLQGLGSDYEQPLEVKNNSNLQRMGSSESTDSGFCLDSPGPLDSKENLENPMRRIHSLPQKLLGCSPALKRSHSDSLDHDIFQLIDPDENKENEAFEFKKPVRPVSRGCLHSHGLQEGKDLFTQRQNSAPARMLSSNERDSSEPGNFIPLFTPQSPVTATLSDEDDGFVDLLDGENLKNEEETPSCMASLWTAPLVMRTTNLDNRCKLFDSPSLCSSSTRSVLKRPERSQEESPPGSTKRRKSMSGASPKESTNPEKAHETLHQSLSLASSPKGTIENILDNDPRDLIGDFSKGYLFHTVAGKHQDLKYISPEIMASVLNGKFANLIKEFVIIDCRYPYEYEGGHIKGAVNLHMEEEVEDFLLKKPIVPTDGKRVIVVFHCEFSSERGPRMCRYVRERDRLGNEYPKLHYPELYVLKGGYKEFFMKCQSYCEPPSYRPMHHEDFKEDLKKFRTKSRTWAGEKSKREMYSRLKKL

[2] = target: T1, M-phase inducer phosphatase 1 (Homo sapiens); test: as §1, with “assay in presence of 0.05% triton X 100” for “assay”
[3] = target: T1, M-phase inducer phosphatase 1 (Homo sapiens); test: as §1, with “assay in presence of 0.1% triton X 100” for “assay”
[4] = target: T2, M-phase inducer phosphatase 1 (Homo sapiens, UniProt P30304); test: as §1, with “Mixed type inhibition” for “Inhibition”, “BL21-DE3 assessed as enzyme/substrate/inhibitor complex” for “BL21-DE3”
T2 sequence (P30304 whole entry): T1 sequence (whole entry)

MDA-MB-231 [5] = test: Induction of reactive oxygen species production in human MDA-MB-231 cells at IC50 concentration up to 6 hrs by DCF-2DA dye based flow cytometry; format: functional, cell-based
MCF7 [6] = test: Increase in peroxynitryl radical levels in human MCF7 cells at IC50 concentration incubated for 24 hrs by DHR dye based flow cytometry; format: functional, cell-based
[7] = target: T1, M-phase inducer phosphatase 1 (Homo sapiens); test: Inhibition of human recombinant full length GST-tagged CDC25A transfected in Escherichia coli BL21-DE3 using 3-O-methylfluorescein phosphate as substrate at 10 uM incubated for 20 mins followed by substrate addition measured every 10 mins for 2 hrs by fluorimetric assay in presence of 0.1% BSA
MDA-MB-231 [8] = test: Antiproliferative activity against human MDA-MB-231 cells assessed as cell viability at IC50 concentration after 48 hrs by 2',7'-dichlorofluorescin diacetate/PI staining based flow cytometry; format: functional
MCF7 [9] = test: Cytostatic activity against human MCF7 cells at IC50 concentration; format: functional, cell-based
MDA-MB-231 [10] = test: Cell cycle arrest in human MDA-MB-231 cells assessed as accumulation at S phase at IC50 concentration after 48 hrs by propidium iodide staining-based flow cytometry (reference value: 21.7 +/- 0.3%); format: functional
MDA-MB-231 [11] = test: Cytotoxicity against human MDA-MB-231 cells assessed as inhibition of cell growth after 72 hrs by MTT assay; format: functional, cell-based; details: MDA-MB-231, 72 h
[12] = target: T3, M-phase inducer phosphatase 2 (Homo sapiens) (UniProt P30305); test: Inhibition of human recombinant GST-tagged CDC25B catalytic domain transfected in Escherichia coli BL21-DE3 using 3-O-methylfluorescein phosphate as substrate at 10 uM incubated for 20 mins followed by substrate addition measured every 10 mins for 2 hrs by fluorimetric assay
T3 sequence (whole entry): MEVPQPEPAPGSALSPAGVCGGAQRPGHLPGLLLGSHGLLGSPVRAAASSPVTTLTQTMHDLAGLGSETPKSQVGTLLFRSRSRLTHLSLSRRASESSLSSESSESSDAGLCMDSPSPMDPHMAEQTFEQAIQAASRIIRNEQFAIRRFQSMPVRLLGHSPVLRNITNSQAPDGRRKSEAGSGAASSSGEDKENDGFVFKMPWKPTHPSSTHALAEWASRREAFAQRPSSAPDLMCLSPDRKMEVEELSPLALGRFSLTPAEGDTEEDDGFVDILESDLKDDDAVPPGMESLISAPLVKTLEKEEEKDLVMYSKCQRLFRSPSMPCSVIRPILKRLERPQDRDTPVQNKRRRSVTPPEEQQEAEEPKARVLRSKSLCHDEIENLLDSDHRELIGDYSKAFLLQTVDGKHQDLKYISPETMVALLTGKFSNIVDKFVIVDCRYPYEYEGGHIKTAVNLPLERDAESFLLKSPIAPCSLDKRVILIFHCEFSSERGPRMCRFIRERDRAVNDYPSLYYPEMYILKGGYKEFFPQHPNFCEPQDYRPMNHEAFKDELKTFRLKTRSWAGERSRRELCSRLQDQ

[13] = target: T2, M-phase inducer phosphatase 1; test: as §1, with “Mixed type inhibition” for “Inhibition”, “BL21-DE3 assessed as enzyme/inhibitor complex” for “BL21-DE3”
MCF7 [14] = test: Induction of reactive oxygen species production in human MCF7 cells at IC50 concentration up to 6 hrs by DCF-2DA dye based flow cytometry; format: functional, cell-based
MCF7 [15] = test: Cell cycle arrest in human MCF7 cells assessed as accumulation at subG1 phase at IC50 concentration after 48 hrs by propidium iodide staining-based flow cytometry; format: functional
[16] = target: T2, M-phase inducer phosphatase 1; test: Inhibition of human recombinant full length GST-tagged CDC25A transfected in Escherichia coli BL21-DE3 using 3-O-methylfluorescein phosphate as substrate incubated for 20 mins followed by substrate addition measured every 10 mins for 2 hrs by fluorimetric assay
MDA-MB-231 [17] = test: Cytostatic activity against human MDA-MB-231 cells at IC50 concentration; format: functional, cell-based
[18] = target: T2, M-phase inducer phosphatase 1; test: as §1, with “Mixed type inhibition of” for “Inhibition of”, “BL21-DE3 assessed as enzyme/substrate/inhibitor complex” for “BL21-DE3”, “at 5” for “at 10”
MCF7 [19] = test: Increase in RNS levels in human MCF7 cells at IC50 concentration incubated for 24 hrs by DAF-2DA dye based flow cytometry; format: functional, cell-based
MDA-MB-231 [20] = test: Cell cycle arrest in human MDA-MB-231 cells assessed as accumulation at G0/G1 phase at IC50 concentration after 48 hrs by propidium iodide staining-based flow cytometry (reference value: 57.3 +/- 0.3%); format: functional
[21] = target: Cyclin-dependent kinase 1 (Homo sapiens) (UniProt P06493); test: Effect on CDK1 phosphorylation in human MDA-MB-231 after 6 hrs by Western blot analysis
Cyclin-dependent kinase 1 (Homo sapiens), sequence (P06493 whole entry, looked up, the tested form may be a part): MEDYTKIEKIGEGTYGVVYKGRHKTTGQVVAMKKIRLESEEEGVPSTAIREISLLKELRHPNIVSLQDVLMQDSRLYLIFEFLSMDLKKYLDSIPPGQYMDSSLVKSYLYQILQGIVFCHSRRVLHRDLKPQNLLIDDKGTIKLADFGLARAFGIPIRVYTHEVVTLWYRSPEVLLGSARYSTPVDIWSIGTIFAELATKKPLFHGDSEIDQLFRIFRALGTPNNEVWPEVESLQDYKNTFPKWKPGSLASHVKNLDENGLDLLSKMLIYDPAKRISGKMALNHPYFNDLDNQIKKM

MCF7 [22] = test: Induction of apoptosis in human MCF7 cells assessed as nuclear fragmentation after 24 hrs by dihydro-rhodamine 123/hoechst […] staining based UV fluorescent microscopy; format: functional, cell-based
HT-29 = test: Cytotoxicity against human HT-29 cells assessed as inhibition of cell growth after 72 hrs by MTT assay; format: functional, cell-based; details: HT-29, 72 h

COc1ccc(/C=C2/S/C(=N\c3nc4cc(-c5ccc(Cl)cc5)sc4s3)NC2=O)cc1
inhibition [1]: 70.3%
inhibition [2]: 54.4%
inhibition [3]: 86.2%
Ki [4]: 5.1 µM
Activity (MDA-MB-231 [5]): inactive
Activity (MCF7 [6]): Active
inhibition [7]: 21.8%
Activity (MDA-MB-231 [8]): inactive
Activity (MCF7 [9]): Active
Activity (MDA-MB-231 [10]): 25.8%
IC50 (MDA-MB-231 [11]): 8.4 µM
inhibition [12]: 36.7%
Ki [13]: 4.8 µM
Activity (MCF7 [14]): inactive
Activity (MCF7 [15]): inactive
IC50 [16]: 6.2 µM
Activity (MDA-MB-231 [17]): Active
Ki [18]: 12.2 µM
Activity (MCF7 [19]): Active
Activity (MDA-MB-231 [20]): 58.3%
Activity [21]: inactive
Activity (MCF7 [22]): inactive
IC50 (HT-29): 10.3 µM
